Laboratory results: paper PMC10999543, “Identification of kinase modulators as host-directed therapeutics against intracellular methicillin-resistant Staphylococcus aureus” (Frontiers in Cellular and Infection Microbiology, 2024)

Columns and labels:
AMPK = assay: Phosphorylation of ACC1 at Ser80 by flow cytometry (readout for AMPK activity); type: cell-based, human; details: MRSA-infected HeLa cells
Experimental: To determine the expression of the HER kinase family, cells were harvested using PBS + 5 mM EDTA and fixed in 1% paraformaldehyde for 20 min at RT. To determine phosphorylation of ACC1 at Ser80, cells were harvested by incubation in pre-warmed trypsin-EDTA, which was neutralized after 5 min with an equal volume of FBS, and fixed in 4% ultra-pure formaldehyde (Bio Trend, Cologne, Germany) for 20 min at RT. For intracellular staining, the cells were permeabilized in ice-cold methanol for 20 min. Subsequently, the cells were blocked in PBS + 0.5% bovine serum albumin + 0.005% NaN3 (both from Sigma-Aldrich; FACS buffer) + 5% human serum for 5 min. The cells were labelled with primary and secondary antibodies (listed in Supplementary Table S1 ) in FACS buffer. Samples were measured on the FACSLyric and analysed using FlowJo 10 (FlowJo LCC, Ashland, OR, USA).

LC3 = assay: Autophagosome formation by western blot (LC3-II/LC3-I); type: cell-based, human; details: MRSA-infected HeLa cells
Experimental: HeLa cells were seeded with 100,000 cells/well in 24-wells plates. In short, the cells were lysed in EBSB buffer (10% v/v glycerol, 3% SDS, 100 mM Tris-HCl, pH 6.8) supplemented with one tablet of cOmplete EDTA-free protease inhibitor cocktail (Sigma-Aldrich) and proteins were denaturated at 95°C for 5 min. Protein concentrations were determined using a Pierce™ BCA protein assay kit (Thermo Fisher Scientific). Samples were diluted in Laemmli sample buffer and loaded on a 15-well 4–20% Mini-PROTEAN® TGX™ Precast Protein Gel for electrophoresis (both from Bio-Rad, Hercules, CA, USA). […] Membranes were blocked for 1h in PBS supplemented with 5% w/v non-fat dry milk. Next, the membranes were cut and each protein was separately stained with primary antibodies against actin and LC3B in PBS supplemented with 5% w/v non-fat dry milk, or against AMPKα and AMPKα-pThr172 in PBS supplemented with 5% BSA (antibodies listed in Supplementary Table S1 ). Membranes were stained with secondary antibodies in PBS supplemented with 5% w/v non-fat dry milk. After each staining, membranes were washed four times in PBS + 0.1% Tween20. Prior to revelation, the membranes were incubated for 10 min in enhanced chemiluminescence (ECL) Prime Western Blotting System reagent (GE Healthcare, Hoevelaken, The Netherlands). […] Protein bands were quantified using Fiji software ([Schindelin et al., 2012]).

[1] = system: bioluminescent strain of MRSA; assay: Real-time bioluminescence of MRSA-lux after infection of HeLa cells; type: cell-based, Staphylococcus aureus; details: 10 µM, infected HeLa cells
Experimental: The cells were resuspended in cell culture medium without antibiotics, seeded with 10,000 cells/well into Costar flat-bottom 96-well plates (Corning, Amsterdam, the Netherlands), and were incubated overnight at 37°C/5% CO2. The next day, the bacteria were centrifuged at ≥1800 g for 15 min and resuspended in cold PBS + 5 mM ethylenediaminetetraacetic acid (EDTA). The number of CFUs present in the bacterial suspension was estimated from the optical density at 600 nm (OD600) by assuming 8x10^8 CFUs to be present in a bacterial suspension with OD600 = 1, based on prior titrations. The bacterial suspension was diluted in cell culture medium without antibiotics and added to the cells. […] The calculated mean MOI throughout all experiments was 6.8 ± 4.6 (mean ± SD). […]
MRSA cultures at a concentration corresponding to an absorbance of 0.1 at 600 nm were incubated with the kinase inhibitors at 10 μM in flat-bottom 96-well plates. The absorbance was measured using an EnVision plate reader (PerkinElmer). The plates were incubated at 37°C overnight and the absorbance was measured again the next day. Real-time measurement of bioluminescence by the MRSA-lux strain was performed in a white flat-bottom 96-wells plate using a SpectraMax i3x plate reader and an integration time set at 9000 ms.

HER4 = system: HER4; parameters: method as in Elkins et al., 2016; details: PKIS1, Caliper assay, ref Elkins et al., 2016; cited from earlier work

SMILES	ACC1 phosphorylation at Ser80 (AMPK)	accumulation of LC3-II (LC3; in the presence of bafilomycin A1 (100 nM))	formation of LC3-II (LC3; without bafilomycin)	effect on bioluminescent MRSA growth over time [1]	% inhibition at 1 µM HER4 (HER4)
COc1ccc2[nH]c3c4[nH]c5ccc(OC)cc5c4c4c(c3c2c1)C(=O)NC4=O [GW296115X]	increased ACC1 phosphorylation	strong accumulation of LC3-II	not affected	acts rapidly	–
O=S(=O)(CCNCc1ccc(-c2ccc3ncnc(Nc4ccc(OCc5cccc(F)c5)c(Cl)c4)c3c2)o1)c1ccccc1 [GW633459A]	–	–	–	–	89%
